Among the data in paper PMC6576746, “Rational discovery of dual-indication multi-target PDE/Kinase inhibitor for precision anti-cancer therapy using structural systems pharmacology” (PLoS Computational Biology, 2019) are remaining binding values, retold here.

Holding throughout (experiment): biochemical
Common to all, as to parameters: DiscoverX KinomeScan competition binding assay across human kinases; per cent of control at 10 and 100 uM

Experiment [1] concerns the target T1, ABL1(F317L)-phosphorylated (Homo sapiens, UniProt P00519, F317L).
T1 construct: phosphorylated
Particulars: competition binding, % of control; read-out: Percent Control (100 uM Levosimendan). A digest of the protocol: (§1)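 KinomeScan competition binding was run across a human kinase panel at 10 μM and 100 μM levosimendan. Results are %control = (test − positive control)/(negative control − positive control) × 100.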

The target of experiment [2] is T2, ABL1(T315I)-phosphorylated (Homo sapiens, UniProt P00519, T315I).
T2 construct: phosphorylated
To be noted: competition binding, % of control; read-out: Percent Control (100 uM Levosimendan). In a few lines: as §1

A further experiment concerns the target CDKL3 (Homo sapiens, UniProt Q8IVW4). To be noted: competition binding, % of control; read-out: Percent Control (100 uM Levosimendan). In a few lines:
as §1

The next experiment addresses DYRK2 (Homo sapiens, UniProt Q92630). Particulars: competition binding, % of control; read-out: Percent Control (100 uM Levosimendan). In a few lines:
as §1

A further experiment concerns the target FLT1 (Homo sapiens, UniProt P17948). Particulars: competition binding, % of control. A digest of the protocol:
as §1

The target in a further experiment is HUNK (Homo sapiens, UniProt P57058). To be noted: competition binding, % of control; read-out: Percent Control (100 uM Levosimendan). A digest of the protocol:
as §1

The target of a further experiment is MAP3K15 (Homo sapiens, UniProt Q6ZN16). Particulars: competition binding, % of control; read-out: Percent Control (100 uM Levosimendan). In a few lines:
as §1

The target of another experiment is MAP3K3 (Homo sapiens, UniProt Q99759). To be noted: competition binding, % of control; read-out: Percent Control (100 uM Levosimendan). In a few lines:
as §1

A further experiment addresses T3, MEK1 (Homo sapiens, UniProt Q02750).
T3 construct: gene MAP2K1
To be noted: competition binding, % of control; read-out: Percent Control (100 uM Levosimendan). In a few lines:
as §1

The next experiment deals with MTOR (Homo sapiens, UniProt P42345). To be noted: competition binding, % of control; read-out: Percent Control (100 uM Levosimendan). In a few lines: as §1
The target of a further experiment is T4, PIK4CB (Homo sapiens, UniProt Q9UBF8).
T4 construct: gene PI4KB
Particulars: competition binding, % of control; read-out: Percent Control (100 uM Levosimendan). In a few lines: as §1

A further experiment deals with PRKG2 (Homo sapiens, UniProt Q13237). To be noted: competition binding, % of control; read-out: Percent Control (100 uM Levosimendan). A digest of the protocol:
as §1

For the next experiment, the target named is ROCK2 (Homo sapiens, UniProt O75116). Particulars: competition binding, % of control. In a few lines:
as §1

Experiment [3] concerns the target T5, RPS6KA5(Kin.Dom.2-C-terminal) (Homo sapiens, UniProt O75582).
T5 construct: Kin.Dom.2-C-terminal
Particulars: competition binding, % of control; read-out: Percent Control (100 uM Levosimendan). A digest of the protocol:
as §1

Experiment [4] concerns the target T6, RSK1(Kin.Dom.1-N-terminal) (Homo sapiens, UniProt Q15418).
T6 construct: gene RPS6KA1; Kin.Dom.1-N-terminal
To be noted: competition binding, % of control; read-out: Percent Control (100 uM Levosimendan). In a few lines:
as §1

The target of another experiment is T7, SIK (Homo sapiens, UniProt P57059).
T7 construct: gene SIK1
To be noted: competition binding, % of control; read-out: Percent Control (100 uM Levosimendan). In a few lines:
as §1

In a further experiment the target is ULK1 (Homo sapiens, UniProt O75385). Particulars: competition binding, % of control; read-out: Percent Control (100 uM Levosimendan). A digest of the protocol:
as §1

In another experiment the target is T8, ZAK (Homo sapiens, UniProt Q9NYL2).
T8 construct: gene MAP3K20
To be noted: competition binding, % of control. In a few lines:
as §1

[5] abbreviates: read-out: Percent Control (10 uM Levosimendan).
Setting [6] is: read-out: Percent Control (100 uM Levosimendan).

T8 sequence (Q9NYL2 whole entry): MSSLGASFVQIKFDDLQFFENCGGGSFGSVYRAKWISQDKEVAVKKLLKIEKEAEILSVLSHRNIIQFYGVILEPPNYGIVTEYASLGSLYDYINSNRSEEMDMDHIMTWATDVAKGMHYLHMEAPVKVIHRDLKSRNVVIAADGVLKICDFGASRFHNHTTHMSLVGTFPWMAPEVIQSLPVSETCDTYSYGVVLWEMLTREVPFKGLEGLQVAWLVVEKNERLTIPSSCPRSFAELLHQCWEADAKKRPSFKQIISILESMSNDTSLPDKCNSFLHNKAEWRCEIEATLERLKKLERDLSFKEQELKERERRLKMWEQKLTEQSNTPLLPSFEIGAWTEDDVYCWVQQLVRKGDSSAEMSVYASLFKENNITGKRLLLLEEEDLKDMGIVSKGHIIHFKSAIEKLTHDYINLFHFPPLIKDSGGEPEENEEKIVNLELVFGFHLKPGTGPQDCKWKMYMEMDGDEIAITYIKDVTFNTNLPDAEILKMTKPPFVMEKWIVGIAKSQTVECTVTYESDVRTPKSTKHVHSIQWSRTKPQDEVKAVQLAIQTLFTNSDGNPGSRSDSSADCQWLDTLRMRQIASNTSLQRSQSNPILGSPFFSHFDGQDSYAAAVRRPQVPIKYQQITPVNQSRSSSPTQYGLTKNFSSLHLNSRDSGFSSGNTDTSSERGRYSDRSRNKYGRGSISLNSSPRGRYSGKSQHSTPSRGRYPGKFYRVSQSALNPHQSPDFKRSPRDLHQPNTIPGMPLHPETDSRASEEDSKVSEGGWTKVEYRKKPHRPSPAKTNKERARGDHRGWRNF
Chain of FLT1 (P17948 whole entry): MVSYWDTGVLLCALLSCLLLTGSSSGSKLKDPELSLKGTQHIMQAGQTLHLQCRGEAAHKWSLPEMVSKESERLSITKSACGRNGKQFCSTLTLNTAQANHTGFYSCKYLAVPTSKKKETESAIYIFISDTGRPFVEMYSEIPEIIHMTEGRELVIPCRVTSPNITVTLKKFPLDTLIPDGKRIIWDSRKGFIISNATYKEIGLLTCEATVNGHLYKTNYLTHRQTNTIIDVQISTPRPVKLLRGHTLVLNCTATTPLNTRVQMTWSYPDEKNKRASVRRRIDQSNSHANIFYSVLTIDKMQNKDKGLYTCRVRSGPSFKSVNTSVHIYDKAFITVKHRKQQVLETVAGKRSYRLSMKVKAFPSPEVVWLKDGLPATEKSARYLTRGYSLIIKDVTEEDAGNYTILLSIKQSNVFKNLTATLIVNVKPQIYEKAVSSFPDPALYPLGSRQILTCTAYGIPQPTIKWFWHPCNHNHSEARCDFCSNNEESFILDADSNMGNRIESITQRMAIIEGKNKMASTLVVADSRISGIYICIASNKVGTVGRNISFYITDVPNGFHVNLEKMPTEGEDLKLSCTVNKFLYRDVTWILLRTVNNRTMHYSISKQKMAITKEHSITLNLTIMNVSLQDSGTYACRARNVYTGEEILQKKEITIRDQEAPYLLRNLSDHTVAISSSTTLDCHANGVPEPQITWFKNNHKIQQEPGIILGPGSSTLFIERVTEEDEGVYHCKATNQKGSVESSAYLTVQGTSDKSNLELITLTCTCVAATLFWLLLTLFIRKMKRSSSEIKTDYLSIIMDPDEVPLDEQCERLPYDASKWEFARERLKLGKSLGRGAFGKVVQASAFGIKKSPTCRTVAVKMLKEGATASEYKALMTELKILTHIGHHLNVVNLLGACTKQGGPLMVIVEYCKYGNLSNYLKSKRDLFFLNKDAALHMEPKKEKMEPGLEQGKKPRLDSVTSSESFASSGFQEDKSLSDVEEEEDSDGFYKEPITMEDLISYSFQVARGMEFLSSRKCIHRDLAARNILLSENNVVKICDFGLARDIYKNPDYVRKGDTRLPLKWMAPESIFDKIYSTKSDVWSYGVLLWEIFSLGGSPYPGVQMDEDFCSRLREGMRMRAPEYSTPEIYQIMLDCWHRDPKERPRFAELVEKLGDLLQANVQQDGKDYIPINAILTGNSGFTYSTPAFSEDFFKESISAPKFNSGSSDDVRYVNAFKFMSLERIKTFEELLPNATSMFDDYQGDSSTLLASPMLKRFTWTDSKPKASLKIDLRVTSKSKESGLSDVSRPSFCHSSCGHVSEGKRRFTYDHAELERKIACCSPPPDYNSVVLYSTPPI
Chain of ROCK2 (O75116 whole entry): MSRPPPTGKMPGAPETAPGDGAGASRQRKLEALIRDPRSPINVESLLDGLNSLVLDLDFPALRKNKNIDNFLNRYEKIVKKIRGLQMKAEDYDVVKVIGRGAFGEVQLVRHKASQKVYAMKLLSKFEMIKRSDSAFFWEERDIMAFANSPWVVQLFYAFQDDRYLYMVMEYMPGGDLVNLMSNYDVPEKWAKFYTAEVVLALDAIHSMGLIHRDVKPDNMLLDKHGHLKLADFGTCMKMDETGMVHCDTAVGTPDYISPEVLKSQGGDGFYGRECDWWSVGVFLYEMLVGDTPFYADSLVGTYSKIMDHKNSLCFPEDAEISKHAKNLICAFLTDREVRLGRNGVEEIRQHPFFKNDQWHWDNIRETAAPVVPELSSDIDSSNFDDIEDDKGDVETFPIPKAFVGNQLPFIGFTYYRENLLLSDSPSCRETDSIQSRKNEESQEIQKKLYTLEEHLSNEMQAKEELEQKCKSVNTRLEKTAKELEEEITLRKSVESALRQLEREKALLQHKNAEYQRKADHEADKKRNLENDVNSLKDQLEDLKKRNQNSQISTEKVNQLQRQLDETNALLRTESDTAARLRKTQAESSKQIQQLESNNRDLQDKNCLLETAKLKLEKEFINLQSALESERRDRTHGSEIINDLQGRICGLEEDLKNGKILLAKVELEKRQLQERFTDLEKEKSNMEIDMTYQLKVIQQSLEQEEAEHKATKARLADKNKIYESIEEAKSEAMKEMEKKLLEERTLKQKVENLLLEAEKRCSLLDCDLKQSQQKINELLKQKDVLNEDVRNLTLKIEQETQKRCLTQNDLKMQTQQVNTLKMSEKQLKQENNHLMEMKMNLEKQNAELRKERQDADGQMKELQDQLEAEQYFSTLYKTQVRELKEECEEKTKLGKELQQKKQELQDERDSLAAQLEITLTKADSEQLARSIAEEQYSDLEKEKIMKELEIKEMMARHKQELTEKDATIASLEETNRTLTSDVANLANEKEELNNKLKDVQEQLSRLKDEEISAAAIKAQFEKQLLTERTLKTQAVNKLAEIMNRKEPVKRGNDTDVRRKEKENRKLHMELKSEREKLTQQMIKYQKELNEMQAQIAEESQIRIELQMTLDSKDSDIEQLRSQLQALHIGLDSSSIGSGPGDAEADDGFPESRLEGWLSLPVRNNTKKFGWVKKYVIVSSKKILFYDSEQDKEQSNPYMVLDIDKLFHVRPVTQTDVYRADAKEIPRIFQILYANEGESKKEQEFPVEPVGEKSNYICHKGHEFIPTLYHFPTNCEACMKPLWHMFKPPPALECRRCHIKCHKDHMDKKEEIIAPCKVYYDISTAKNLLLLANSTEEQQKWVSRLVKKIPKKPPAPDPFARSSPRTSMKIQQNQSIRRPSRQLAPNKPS
Chain of MAP3K3 (Q99759 whole entry): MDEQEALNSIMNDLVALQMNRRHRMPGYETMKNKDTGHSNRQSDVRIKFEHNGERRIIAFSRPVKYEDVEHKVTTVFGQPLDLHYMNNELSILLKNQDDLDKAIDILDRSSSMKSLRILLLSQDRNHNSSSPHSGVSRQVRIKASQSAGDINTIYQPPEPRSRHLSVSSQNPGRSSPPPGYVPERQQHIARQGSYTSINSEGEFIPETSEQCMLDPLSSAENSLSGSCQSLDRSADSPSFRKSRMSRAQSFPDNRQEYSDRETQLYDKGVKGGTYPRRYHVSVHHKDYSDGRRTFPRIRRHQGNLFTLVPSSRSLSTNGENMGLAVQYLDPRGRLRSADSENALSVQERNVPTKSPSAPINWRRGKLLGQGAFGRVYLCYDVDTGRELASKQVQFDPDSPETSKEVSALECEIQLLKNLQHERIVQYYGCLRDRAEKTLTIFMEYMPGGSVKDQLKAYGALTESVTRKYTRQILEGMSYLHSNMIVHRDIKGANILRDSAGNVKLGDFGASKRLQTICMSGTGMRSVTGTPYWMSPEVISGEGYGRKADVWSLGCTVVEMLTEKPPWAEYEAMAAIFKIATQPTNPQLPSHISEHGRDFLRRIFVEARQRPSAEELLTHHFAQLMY
T5 sequence (O75582 whole entry): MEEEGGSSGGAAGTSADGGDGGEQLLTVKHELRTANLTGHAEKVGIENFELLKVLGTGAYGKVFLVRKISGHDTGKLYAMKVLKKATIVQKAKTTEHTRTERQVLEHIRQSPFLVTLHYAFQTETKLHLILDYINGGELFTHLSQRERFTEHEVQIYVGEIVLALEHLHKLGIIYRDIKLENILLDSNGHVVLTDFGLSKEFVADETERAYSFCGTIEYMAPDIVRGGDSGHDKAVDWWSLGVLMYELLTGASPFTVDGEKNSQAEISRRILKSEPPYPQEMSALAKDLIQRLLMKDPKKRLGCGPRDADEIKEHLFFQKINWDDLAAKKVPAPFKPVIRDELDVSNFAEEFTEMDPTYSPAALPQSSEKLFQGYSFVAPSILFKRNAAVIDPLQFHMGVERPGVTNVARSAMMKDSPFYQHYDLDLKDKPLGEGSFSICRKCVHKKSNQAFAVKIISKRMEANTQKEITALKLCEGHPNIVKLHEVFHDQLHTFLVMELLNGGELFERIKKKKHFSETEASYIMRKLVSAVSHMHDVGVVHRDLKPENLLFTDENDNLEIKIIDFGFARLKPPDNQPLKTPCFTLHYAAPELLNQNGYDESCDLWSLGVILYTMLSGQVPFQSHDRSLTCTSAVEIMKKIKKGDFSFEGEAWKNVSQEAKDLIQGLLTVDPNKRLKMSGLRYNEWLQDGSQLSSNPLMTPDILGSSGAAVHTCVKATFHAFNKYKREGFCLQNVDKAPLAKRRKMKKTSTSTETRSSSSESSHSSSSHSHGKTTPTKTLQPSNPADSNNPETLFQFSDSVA

As for `C[C@@H]1CC(=O)NN=C1c1ccc(NN=C(C#N)C#N)cc1` [levosimendan], the remaining binding at 100 µM was found to be 59% in experiment [1]; 64% in experiment [2]; 100% at CDKL3; 85% on DYRK2; 44% at FLT1 (setting [6]); 100% at HUNK. Besides, the remaining binding at 100 µM at MAP3K15 was found to be 100%; at MAP3K3, 66%; on MEK1 it was 85%; on MTOR, 100%; at PIK4CB, 100%; at PRKG2, 98%. Moreover, the remaining binding at 100 µM on ROCK2 (setting [6]) is 4.9%; in experiment [3] it was 100%; in experiment [4], 84%; on SIK, 59%; on ULK1, 95%; on ZAK (setting [6]) it was 52%. In addition, the figures for the remaining binding at 10 µM on FLT1 (setting [5]), at ROCK2 (setting [5]) and on ZAK (setting [5]) were 98%, 49% and 100%, respectively.
